The source of these data is article PMC5123277, “Cloning, functional expression and characterization of a bifunctional 3-hydroxybutanal dehydrogenase /reductase involved in acetone metabolism by Desulfococcus biacutus” (BMC Microbiology, 2016).

In this assay the test system is T1, Debia-MDR.
T1 construct: gene DebiaDRAFT_04514; full-length, N-terminal His6-tag (pET100, tag kept), E. coli Rosetta 2 (DE3); monomer 38,272 Da predicted, approx. 41 kDa with tag; native about 170 kDa, homotetramer; forward primer […]; (N-terminus MAKMMKT by translation)
The assay can be described thus: spectrophotometric NADH consumption at […] nm. It counts as biochemical, Desulfococcus biacutus. Conditions: reduction direction, NADH co-substrate (0.1 mM in the general assay); 50 uM ZnCl2, 3 mM DTT, anoxic; general assay 25 mM MOPS pH 7.2, 30 °C.

Turning to `CC(C)=O` [acetone], the Km is 40 µM.

As usually defined, the Km is the concentration of substrate that gives half-maximal velocity.
